From patent publication US20180362587A1, “Compositions and Methods for Inhibiting CBP80 Binding to PGC1 Family of Co-Activators” (University of Rochester, priority 2015, published 2018)
Square brackets hold non-standard residues; d marks the D form. Peptide text beside a SMILES is read from it. * marks the point of attachment. Crotonyl(E) = C/C=C/C(=O)*; Dab = NCC[C@H](N)C(=O)O; Aib = CC(C)(N)C(=O)O

T1: CBP80/CBP20 complex (Homo sapiens, UniProt Q09161)
T1 sequence (Q09161 1-790): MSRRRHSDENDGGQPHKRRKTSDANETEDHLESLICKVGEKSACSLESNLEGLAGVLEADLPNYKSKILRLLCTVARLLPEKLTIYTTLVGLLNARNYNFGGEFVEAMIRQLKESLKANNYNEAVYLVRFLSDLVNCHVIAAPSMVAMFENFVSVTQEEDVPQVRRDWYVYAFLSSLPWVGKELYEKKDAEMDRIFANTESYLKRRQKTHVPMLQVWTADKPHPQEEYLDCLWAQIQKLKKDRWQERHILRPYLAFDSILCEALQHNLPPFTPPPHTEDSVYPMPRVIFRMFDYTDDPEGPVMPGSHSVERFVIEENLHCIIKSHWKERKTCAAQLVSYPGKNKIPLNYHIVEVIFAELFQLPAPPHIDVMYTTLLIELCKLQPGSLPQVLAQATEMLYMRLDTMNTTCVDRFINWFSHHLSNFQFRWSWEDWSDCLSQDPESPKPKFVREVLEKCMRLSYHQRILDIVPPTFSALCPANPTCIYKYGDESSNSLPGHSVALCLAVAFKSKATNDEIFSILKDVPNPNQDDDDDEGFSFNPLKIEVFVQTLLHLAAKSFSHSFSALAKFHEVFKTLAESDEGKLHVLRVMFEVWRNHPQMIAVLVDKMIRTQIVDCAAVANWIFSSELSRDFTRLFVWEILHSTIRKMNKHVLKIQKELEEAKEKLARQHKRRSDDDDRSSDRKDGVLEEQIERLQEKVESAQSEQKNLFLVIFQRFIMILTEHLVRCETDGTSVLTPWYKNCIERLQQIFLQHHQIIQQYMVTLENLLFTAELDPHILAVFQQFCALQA
T1 sequence (P52298 1-156 partner): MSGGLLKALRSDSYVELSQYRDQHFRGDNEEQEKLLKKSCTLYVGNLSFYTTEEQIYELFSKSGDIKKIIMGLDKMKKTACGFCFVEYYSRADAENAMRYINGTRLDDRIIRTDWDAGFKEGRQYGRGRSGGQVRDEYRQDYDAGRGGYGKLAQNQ

T2: CBP80/CBP20 complex (human, UniProt Q09161 20-790; P52298 1-156, limits assumed)
T2 construct: Used in the fluorescence polarization assays; In the crystal it also carried the cap analogue (m7GpppG / m7GpppA); also called CBC complex; CBC
T2 sequence (looked up) 1: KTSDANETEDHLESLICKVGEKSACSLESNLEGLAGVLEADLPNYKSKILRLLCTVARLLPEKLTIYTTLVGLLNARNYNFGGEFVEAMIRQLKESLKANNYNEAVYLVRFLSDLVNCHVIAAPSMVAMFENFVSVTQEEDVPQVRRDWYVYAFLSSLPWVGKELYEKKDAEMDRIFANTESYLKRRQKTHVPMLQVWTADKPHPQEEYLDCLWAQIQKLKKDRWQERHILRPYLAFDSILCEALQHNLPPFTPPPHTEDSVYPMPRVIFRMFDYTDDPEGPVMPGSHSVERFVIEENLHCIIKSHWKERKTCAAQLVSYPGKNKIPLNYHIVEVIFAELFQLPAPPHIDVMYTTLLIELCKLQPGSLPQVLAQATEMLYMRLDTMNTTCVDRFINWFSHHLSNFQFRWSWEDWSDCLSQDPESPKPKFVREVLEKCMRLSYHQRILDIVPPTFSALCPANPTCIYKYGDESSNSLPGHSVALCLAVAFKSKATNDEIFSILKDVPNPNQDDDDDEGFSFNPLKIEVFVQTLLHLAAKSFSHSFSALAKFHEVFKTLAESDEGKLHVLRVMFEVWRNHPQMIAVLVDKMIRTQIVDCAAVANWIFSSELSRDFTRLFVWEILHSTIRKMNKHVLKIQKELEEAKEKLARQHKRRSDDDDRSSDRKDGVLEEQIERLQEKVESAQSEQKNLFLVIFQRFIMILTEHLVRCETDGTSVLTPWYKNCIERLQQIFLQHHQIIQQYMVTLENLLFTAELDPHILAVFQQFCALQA
T2 sequence (looked up) 2: T1 sequence (P52298 1-156 partner)

B1: PGC1β-19 (Ac-MDFDSLLKEAQQSRRRRRRRR-NH2) (peptide)
peptide: Ac-MDFDSLLKEAQQSRRRRRRRR-NH2
B2: PRC-Cterm (Ac-SLDFDDLLKQAQKNLRR-NH2) (peptide)
peptide: Ac-SLDFDDLLKQAQKNLRR-NH2
B3: PGC1α-Cterm (Ac-SLDFDSLLKEAQRSLRR-NH2) (peptide)
peptide: Ac-SLDFDSLLKEAQRSLRR-NH2
B4: PGC1β-2A (Ac-MAFDSLLKEAQQS-NH2) (peptide)
peptide: Ac-MAFDSLLKEAQQS-NH2
B5: PGC1β-8A (Ac-MDFDSLLAEAQQS-NH2) (peptide)
peptide: Ac-MDFDSLLAEAQQS-NH2
B6: PGC1β-12A (Ac-MDFDSLLKEAQAS-NH2) (peptide)
peptide: Ac-MDFDSLLKEAQAS-NH2
B7: PGC1β-Cterm (Ac-AMDFDSLLKEAQQSLH-NH2) (peptide)
peptide: Ac-AMDFDSLLKEAQQSLH-NH2
notes: also called PGC1β-Cterm peptide; unlabeled version of the PGC1β peptide

The molecules below were run against T1, CBP80/CBP20 complex (assay: fluorescence polarization based competition assay (displacement of FITC-labeled PGC1β peptide)). Conditions: 1 μM FITC-labeled PGC1β (FITC-Ahx-AMDFDSLLKEAQQSLH-NH2), 30 μM CBP80/CBP20 complex, HEPES buffer pH 7.5.
Type: binding
Procedure: The ability of α-MOrPHs to disrupt the PGC1β-CBP80 interaction will be assessed and quantified via a fluorescence polarization-based competition assay, in which disruption of the complex formed between a fluorescein-conjugated PGC1β peptide and CBP80 is measured upon adding increasing concentrations of each inhibitory α-MOrPH (FIG. 5A). […] Initially, the length of the linker in the inhibitory α-MOrPH will be optimized for maximal activity toward disrupting the PGC1β-CBP80 interaction (e.g. using SP1-3, FIG. 4).
(§1) The relative activity of the PGC1β mimics toward disrupting the interaction between CBC and the fluorescein-conjugated PGC1β-derived peptide was measured in a competition assay. Briefly, a fixed amount of CBC and fluorescein-conjugated PGC1β-derived peptide are incubated with increasing amounts of the PGC1β mimic (FIG. 11A). From the resulting dose-dependent inhibition curves, the in vitro CBC inhibitory activity of the PGC1β mimic compound is measured based on their respective half-maximal inhibitory concentration (IC50) (FIG. 5B). Using this assay, various PGC1β mimics were evaluated for their relative ability to target CBC and disrupt its binding interaction with PGC1β. […] Short peptides derived from the C-terminal domain of PGC1β and PRC proteins, two other members of the PGC1 family of transcriptional coactivators, were also to bind CBC and inhibits its interaction with the fluorescein-labeled PGC1β peptide with IC50 values in the low micromolar range.
IC50 values were determined by adapting the fluorescence polarization assay described above to a competition format. 1 μM of the FITC-labeled PGC1β peptide (FITC-Ahx-AMDFDSLLKEAQQSLH-NH2) was incubated with 30 μM of the CBP80-CBP20 complex in HEPES Buffer (10 mM HEPES [pH 7.5], 50 mM NaCl and 5 mM 2-mercaptoethanol). The inhibitory peptide was added to the solution at varying concentrations, typically ranging from 1 to 200 μM. Half-maximal inhibitory concentration (IC50) values were calculated from the resulting inhibition curves as given by dose-dependent decrease in the fluorescence polarization signal. All measurements were performed at least in duplicates.

Molecule	IC50 [µM]
CSCC[C@H](NC(C)=O)C(=O)N[C@@H](C)C(=O)N[C@@H](Cc1ccccc1)C(=O)N[C@@H](CC(=O)O)C(=O)N[C@@H](CO)C(=O)N[C@@H](CC(C)C)C(=O)N[C@@H](CC(C)C)C(=O)N[C@@H](CCCCN)C(=O)NC(C)(C)C(=O)N[C@@H](C)C(=O)N[C@@H](CCC(N)=O)C(=O)N[C@@H](CCC(N)=O)C(=O)N[C@@H](CO)C(N)=O [PGC1β-16, Ac-MAFDSLLK(Aib)AQQS-NH2] (Ac-MAFDSLLK[Aib]AQQS-NH2)	< 100
C/C=C/C(=O)NCC[C@H](NC(=O)[C@H](CC(C)C)NC(=O)[C@H](CC(C)C)NC(=O)[C@H](CO)NC(=O)[C@H](CC(=O)O)NC(=O)[C@H](Cc1ccccc1)NC(=O)[C@H](CC(=O)O)NC(=O)[C@H](CCSC)NC(C)=O)C(=O)N[C@@H](CCC(=O)O)C(=O)N[C@@H](C)C(=O)N[C@@H](CCC(N)=O)C(=O)N[C@@H](CCC(N)=O)C(=O)N[C@@H](CO)C(N)=O [PGC1β-18, Ac-MDFDSLL(CrtDab)EAQQS-NH2] (Ac-MDFDSLL[Dab](Crotonyl(E))EAQQS-NH2)	< 100
Ac-AMDFDSLLKEAQQSLH-NH2 [PGC1β-Cterm, Ac-AMDFDSLLKEAQQSLH-NH2]	~35
Ac-MAFDSLLKAAQQS-NH2 [PGC1β-15, Ac-MAFDSLLKAAQQS-NH2]	< 100
Ac-MAFDSLLKNAAAS-NH2 [PGC1β-13, Ac-MAFDSLLKNAAAS-NH2]	< 100
Ac-MAFDSLLKNAAQS-NH2 [PGC1β-14, Ac-MAFDSLLKNAAQS-NH2]	< 100
Ac-MAFDSMLKAAQQS-NH2 [PGC1β-17, Ac-MAFDSMLKAAQQS-NH2]	< 100
Ac-MDADSLLKEAQQS-NH2 [PGC1β-3A, Ac-MDADSLLKEAQQS-NH2]	> 200
Ac-MDFASLLKEAQQS-NH2 [PGC1β-4A, Ac-MDFASLLKEAQQS-NH2]	> 200
Ac-MDFDALLKEAQQS-NH2 [PGC1β-5A, Ac-MDFDALLKEAQQS-NH2]	64 ± 2
Ac-MDFDSALKEAQQS-NH2 [PGC1β-6A, Ac-MDFDSALKEAQQS-NH2]	> 200
Ac-MDFDSLAKEAQQS-NH2 [PGC1β-7A, Ac-MDFDSLAKEAQQS-NH2]	> 200
Ac-MDFDSLLKEAAQS-NH2 [PGC1β-11A, Ac-MDFDSLLKEAAQS-NH2]	64 ± 2
Ac-MDFDSLLKEAQQS-NH2 [PGC1β-wt, Ac-MDFDSLLKEAQQS-NH2]	69
Ac-MDFDSLLKEGQQS-NH2 [PGC1β-10A, Ac-MDFDSLLKEGQQS-NH2]	> 200

These molecules were tested against T2, CBP80/CBP20 complex (assay: FP competition assay; 1 µM FITC-Ahx-…-NH2 as competitor, 30 µM CBP80/CBP20 complex). Conditions: not given.
Procedure: as §1, with “(IC₅₀)” for “(IC50)”, “IC₅₀” for “IC50”
^aAc = acetyl; Biot = biotin; Ahx = 6-aminohexanoic acid; Aib = 2-aminoisobutyric acid; CrtDab = N^γ-crotonyl-2,4-diaminobutyric acid. C-terminal ‘-NH₂’ refers to amidated C-terminal end of the peptide. ^bIC₅₀ was determined using fluorescence polarization based competition assay in the presence of 1 μM of FITC-labeled PGC1β (FITC-Ahx-[…]-NH₂, where FITC is fluorescein-isothiocyanate) and 30 μM of the CBP80/CBP20 complex in HEPES buffer (10 mM HEPES, 50 mM NaCl, 5 mM BME, pH 7.5).
IC₅₀ values were determined by adapting the fluorescence polarization assay described above to a competition format. 1 μM of the FITC-labeled PGC1β peptide (FITC-Ahx-[…]-NH₂) was incubated with 30 μM of the CBP80-CBP20 complex in HEPES Buffer (10 mM HEPES [pH 7.5], 50 mM NaCl and 5 mM 2-mercaptoethanol).

Molecule	IC50 [µM]
B1	80
B2	93
B3	26
B4	50
B5	72
B6	56
B7	32
